Source: publication PMC12624434 (ACS Pharmacology & Translational Science, 2025)
“Also recorded” adds a separate entry of the source.

Experiments:
NRP1 b1 domain = molecular target: T1, NRP1 b1 domain (Homo sapiens, UniProt O14786); assay: SPR binding to immobilized NRP1 b1 domain (Biacore 4000, CM5 chip)
T1 construct: with the purified recombinant NRP1 b1 domain immobilized on the chip; inferred from Ni-NTA capture), TEV-cleavable (cleaved yes); made in house; host or cells: E. coli Rosetta (DE3)
T1 sequence (O14786 275-424 limits assumed): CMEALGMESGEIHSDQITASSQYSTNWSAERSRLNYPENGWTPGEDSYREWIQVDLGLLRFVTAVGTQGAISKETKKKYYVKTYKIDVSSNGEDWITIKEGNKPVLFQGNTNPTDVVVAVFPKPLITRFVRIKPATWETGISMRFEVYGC
Experimental: Surface Plasmon Resonance experiments were performed using a Biacore 4000 instrument at a constant temperature of 25 °C. Sensor chips, buffer stock solutions, and immobilization reagents were purchased from GE Healthcare. Recombinant human NRP1-b1 was produced in-house and recombinant human NRP1-ECD (extracellular domain) was purchased from ACRO (catalogue number NR1-H5A228). All other reagents were obtained from Sigma.
PBS containing 0.05% surfactant P20 was used as the running buffer during immobilization. NRP1-b1 was immobilized onto a CM5 chip using random amine coupling. The four flow cells were treated in the same way to optimize throughput. In summary, spots 1 and 2 were activated with the coupling reagents EDC and NHS for 10 min. NRP1-b1 at a concentration of 20 μg/mL in 10 mM sodium acetate pH 5 was injected onto the surface for 10 and 5 min in spots 1 and 2, respectively to generate surfaces with high and low density. […] The unmodified spot 3 was used as a reference.
PBS buffer containing 0.05% surfactant P20 and 3% DMSO was used as the running buffer and sample dilution buffer throughout these experiments. Dose–responses were obtained using a 2-fold sample dilution from 16 μM to 31 nM, using an injection time of 60 s. Surface regeneration between injections was not necessary, but a wash step with 1 M NaCl was included after injection of the highest concentration sample for each compound.
Binding curves were corrected for variations in DMSO concentration and normalized by molecular weight. Binding results to high and low-density surfaces were processed independently and the average ± SD is presented. K Ds reported are derived from steady-state binding responses and therefore correspond to the equilibrium binding affinity of the compounds.

[1] = system: vascular permeability of perfused mouse retina blood vessels; assay: Ex vivo retina permeability assay (sulforhodamine B extravasation); type: cell-based
Excerpt: C57Bl/6J mice were culled through CO2 overdose before proceeding with the cannulation of the common carotid arteries and perfusion of the vasculature, as previously described. Each eye was subsequently removed and enucleated. The retina was isolated with the attached sclera, flattened onto a silicone base (SYLGARD 184, Merck), and held in position by a metal ring and pins. Retinal explants were visualized with an Olympus 10× objective on an upright Axiophot fluorescence microscope (Zeiss) and continuously superfused with Krebs solution (124 mM NaCl, 5 mM KCl, 2 mM MgSO4, 22 mM […], 0.125 mM NaH2PO4 and 2 mM CaCl2, pH 7.4) supplemented with 5 mM glucose and 0.1% BSA w/v. A radial vein was injected with 1 mg/mL sulforhodamine B (479 Da; Merck) in Krebs solution using a glass needle to visualize the vasculature under a TRITC filter with an Olympus 40× water immersion objective. For permeability measurements, the fluorescence of a selected microvessel was recorded continuously by time-lapse imaging with a CCD camera (Hamamatsu) and HCImageLive software (Hamamatsu) for at least 30 s to obtain a baseline. VEGFA164 or EG00229 in Krebs solution were then added dropwise onto the retina. […] Time-lapse series were analyzed using ImageJ (NIH Bethesda). […] Permeability measurements from at least three different ex vivo retinal preparations were combined and expressed as mean ± SD. […]

[2] = system: VEGFA-induced aversion to mechanical stimuli in rats; assay: Conditioned place aversion (CPA) to 10 g vF stimulation after VEGFA; type: in vivo, rat
Experimental: The procedure was performed as reported previously. Briefly, rats were gently restrained in a fabric cloth and given an intraplantar injection in the hind-paw containing VEGFA165 (10 nM) and compound (EG00229 or 12h, at 30 or 10 μM) alone or in combination in 50 μL of PBS vehicle (NaCl 137 mM, KCl 2.5 mM, Na2HPO4 10 mM, and KH2PO4 1.8 mM), using a 31G needle.
The experiments were conducted in a two-chamber device based on the protocols from and as previously described. The protocol includes 4 × 10 min of sequential tests of preconditioning (10 min), conditioning (2 × 10 min) and testing (10 min). During preconditioning, the animal is allowed free access to two connected chambers (30 × 30 × 19 cm), each associated with a scented lip-balm applied to the walls. Immediately following preconditioning, a divider was applied between the chambers, and the rats were conditioned to either stimuli or no-stimuli for 10 min in each chamber. The stimuli consisted of repeated stimulation with a 10 g VF-filament every 30 s for the 10 min that the subject was contained in that chamber, while no stimuli (NS) was applied in the other chamber. The order and side of conditioning was alternated between subjects. Following the conditioning, the divider was removed, and the rat was allowed free access to both chambers for the 10 min test. Animal movements in each chamber were recorded by a camera above, and the duration of time spent in each chamber was recorded during preconditioning and test phase. Decreased time spent in a chamber during the test versus preconditioning indicated avoidance for that chamber and was calculated as a CPA-score: time in VF-chamber during preconditioning – time in VF-chamber during test.

[3] = system: T180/Y182 phosphorylated p38 (P-p38) in retinal endothelium; assay: VEGFA-induced p38 phosphorylation in ex vivo mouse retina (immunostaining); type: cell-based
Experimental: Retinae from C57Bl/6J mice were fixed in 4% formaldehyde in PBS for 1 h and washed three times with PBS. After 1 h in blocking buffer (3% Triton X-100, 1%1% Tween and 0.5% BSA in 2× PBS), retinae were immunostained by incubation with rabbit anti-P-p38 MAPK (Thr180/Tyr182) antibody (Cell Signaling) and biotin-conjugated Isolectin B4 (IB4, Merck) overnight at 4 °C, followed by Alexa Fluor 555–conjugated goat antirabbit antibodies (Invitrogen) and Alexa Fluor 488-conjugated streptavidin (Invitrogen) respectively for 1 h at rt. Images were acquired with a Zeiss Axioskop 2 microscope, using a ph3 Plan-Apochromat 63×/1.40 oil objective, Hamamatsu camera and the HCImage software. Each image was acquired as an RGB color image and then processed with ImageJ software version 1.52a (NIH Bethesda). Channels were split to separate the IB4 staining (green channel) from the P-p38 staining (red channel). The threshold function was used on the IB4 image to determine the area of the vessels and to generate a mask that was restored in the red channel image to measure the area of the vessels positive to P-p38 staining. The P-p38 staining area was normalized against the area stained with IB4. Three retinae from three different mice per condition were used for analysis. One-way ANOVA was used to compare the different treatments.

kon (NRP1 b1 domain; Figure 2B, SPR-derived binding parameters, read-out: ka): 1.16e+06 M⁻¹ s⁻¹
Kd (NRP1 b1 domain; steady-state binding, 25 °C, mean ± SD, read-out: SPR NRP1 b1 domain equilibrium KD): 600 ± 100 nM
effect on vascular permeability, alone ([1]; compound alone, ex vivo mouse retina): had no effect on vascular permeability
SMILES: N=C(N)NCCC[C@H](NC(=O)c1sccc1NS(=O)(=O)c1cc(NCc2csc(N3CCNCC3)n2)cc2cccnc12)C(=O)O.O=CO [Compound 12h, (2S)-5-Guanidino-2-[[3-[[6-[(2-piperazin-1-ylthiazol-4-yl)-methylamino]-8-quinolyl]-sulfonylamino]-thiophene-2-carbonyl]-amino]-pentanoic Acid, Formic Acid]
effect on VEGFA-induced dye extravasation ([1]; 30 μM, 15 min preincubation of retinal explants): significantly reduced VEGFA-induced dye extravasation
VEGFA-induced stimulus-aversion (time in vF-conditioned chamber), Figure S5 ([2]; 10 μM coinjected with VEGFA 10 nM): blocked by 10 μM 12h in males
effect on VEGFA-induced aversion in CPA-paradigm ([2]; 10 μM, male rats): showed significant reduction in VEGFA-induced aversion
VEGFA-induced aversion (time in vF-conditioned chamber) ([2]; 30 μM coinjected with VEGFA 10 nM, male and female rats): prevented significant stimulus-aversion from VEGFA in both sexes; also recorded: the aversion was prevented
CPA-score vs VEGFA/vehicle ([2]; 30 μM, female rats): did not show a statistically significant improvement
p38 phosphorylation when added alone ([3]; 30 μM alone, 5 min): did not induce p38 phosphorylation
effect on VEGFA-induced p38 phosphorylation in retinal endothelium ([3]; 30 μM, 15 min prior to VEGFA165 stimulation): prevented VEGFA-induced p38 phosphorylation
